We go through three compounds from patent EP0048954A2, “Beta-lactam compounds, process for the preparation thereof and intermediate products for the preparation thereof” (SAGAMI CHEMICAL RESEARCH CENTER, priority 1980, dated 1982).

Assay in all cases: Antibacterial activity, minimum inhibition concentration (method of The Chemotherapy Association, Japan)
Assay type in all cases: cell-based

Test [1] has as its system Salmonella typhimurium 3173. As to conditions: Salmonella enterica, TYPHIMURIUM, strain D: Salmonella typhimurium 3173; read-out: minimum inhibition concentration. The procedure: (§1) Antibacterial activities of the compounds according to this invention, which had been prepared in the preceding Examples, were measured according to the method prescribed by The Committee of Amendment of "The method for measurement of the minimum inhibition concentration", The Chemotherapy Association, Japan (See Chemotherapy, Vol. 22, No. 6, pp. 1126 - 1128 (1974) and Vol. 29, No. 1, pp. 76 - 79 (1981)).
(§2) The abbreviations A to P will be used in the following Tables 2 to 8.
(§3) Test results are shown in terms of the minimum inhibition concentration (µg/mℓ.) in the following Tables 2 to 8.

The subject of test [2] is Proteus mirabillis B-30-2 IFO-3849. To be noted: strain G: Proteus mirabillis B-30-2 IFO-3849; for MIC: read-out: minimum inhibition concentration. On the procedure:
as §1, §2, §3

For the next test, the system named is Klebsiella pneumoniae. To be noted: strain C: Klebsiella pneumoniae; for MIC: Klebsiella pneumoniae, read-out: minimum inhibition concentration. On the procedure: as §1, §2, §3
A further test concerns Proteus morgani Kono. As to conditions: strain J: Proteus morgani Kono; for MIC: read-out: minimum inhibition concentration. The procedure: as §1, §2, §3
The subject of test [3] is Bacillus subtilis ATCC 6633. To be noted: for MIC: Bacillus subtilis, ATCC6633, strain B: Bacillus subtilis ATCC 6633, read-out: minimum inhibition concentration. On the procedure:
as §1, §2, §3

The subject of test [4] is Serratia marcescens IFO-3736. As to conditions: for MIC: Serratia marcescens, IFO3736, strain F: Serratia marcescens IFO-3736, read-out: minimum inhibition concentration; for minimum inhibition concentration: strain F: Serratia marcescens IFO-3736. On the procedure: as §1, §2, §3
The subject of the next test is Escherichia coli NIHJC-2. To be noted: for MIC: Escherichia coli, NIHJC2, strain L: Escherichia coli NIHJC-2, read-out: minimum inhibition concentration. The procedure: as §1, §2, §3
Test [5] concerns Citrobactor freundii NIH-10018 -68. To be noted: strain O: Citrobactor freundii NIH-10018 -68; read-out: minimum inhibition concentration. On the procedure: as §1, §2, §3
Test [6] concerns Pseudomonas aeruginosa NCTC-10490. To be noted: for MIC: Pseudomonas aeruginosa, NCTC10490, strain M: Pseudomonas aeruginosa NCTC-10490, read-out: minimum inhibition concentration; for minimum inhibition concentration: strain M: Pseudomonas aeruginosa NCTC-10490. On the procedure:
as §1, §2, §3

Test [7] has as its system Enterobactor cloacae NCTC-9394. As to conditions: strain N: Enterobactor cloacae NCTC-9394; for MIC: read-out: minimum inhibition concentration. On the procedure:
as §1, §2, §3

The test system of test [8] is Staphylococcus aureus 6538-P. As to conditions: strain A: Staphylococcus aureus 6538-P; read-out: minimum inhibition concentration. The procedure:
as §1, §2, §3

The next test concerns Escherichia coli NIHJ. As to conditions: strain K: Escherichia coli NIHJ; for MIC: Escherichia coli, read-out: minimum inhibition concentration. The procedure:
as §1, §2, §3

A further test relates to Serratia marcescens 1023. To be noted: for MIC: Serratia marcescens, 1023, strain E: Serratia marcescens 1023, read-out: minimum inhibition concentration. On the procedure: as §1, §2, §3
The subject of another test is Proteus vulgaris OX-19. As to conditions: Proteus vulgaris, OX19, strain H: Proteus vulgaris OX-19; read-out: minimum inhibition concentration.
Description: as §2, §3

A further test relates to Proteus rettgeri NIH-96. As to conditions: for minimum inhibition concentration: strain I: Proteus rettgeri NIH-96; for MIC: Providencia rettgeri, NIH96, strain I: Proteus rettgeri NIH-96, read-out: minimum inhibition concentration.
Description: as §2, §3

Structures are written as SMILES. ≈ marks a conversion by molar mass, not a printed value. Where “and” joins values, the source holds several entries; their conditions need not be identical. Equal values may be shown once.

For `CO/N=C(\C(=O)N[C@@H]1C(=O)N2C(C(=O)O)=C(COC(C)=O)CS[C@H]12)c1csc(N)n1` [Cefotaxime, reference compound], the MIC turned out to be 0.1 µg/mL (≈ 0.22 µM) in test [1]; 0.1 µg/mL (≈ 0.22 µM) in the test with Klebsiella pneumoniae; 0.2 µg/mL (≈ 0.439 µM) in test [4]; 0.2 µg/mL (≈ 0.439 µM) in the test with Escherichia coli NIHJC-2; 0.2 µg/mL (≈ 0.439 µM) in test [5]; 0.78 µg/mL (≈ 1.71 µM) in test [6]. Besides, the MIC in [7] is 0.39 µg/mL (≈ 0.856 µM); in test [8], 0.39 µg/mL (≈ 0.856 µM); in the test on Serratia marcescens 1023 it was 50 µg/mL (≈ 110 µM); in the test with Proteus vulgaris OX-19 it was below 0.025 µg/mL. Further, the minimum inhibition concentration is 0.025 µg/mL (≈ 0.0549 µM) in test [2]; 0.1 µg/mL (≈ 0.22 µM) in [2] (listed as Cefota-xime); 0.05 µg/mL (≈ 0.11 µM) in the test with Klebsiella pneumoniae; 0.39 µg/mL (≈ 0.856 µM) in the test with Proteus morgani Kono; 1.56 µg/mL and 0.78 µg/mL with Proteus morgani Kono (listed as Cefota-xime); 6.25 µg/mL (≈ 13.7 µM) in [3] (strain B: Bacillus subtilis ATCC 6633). Besides, the minimum inhibition concentration came out at 0.2 µg/mL (≈ 0.439 µM) in test [4]; 0.39 µg/mL (≈ 0.856 µM) in [4] (listed as Cefota-xime); 0.1 µg/mL (≈ 0.22 µM) in the test on Escherichia coli NIHJC-2 (strain L: Escherichia coli NIHJC-2); 0.39 µg/mL (≈ 0.856 µM) in test [6]; 0.39 µg/mL (≈ 0.856 µM) in [6] (listed as Cefota-xime); 0.2 µg/mL (≈ 0.439 µM) in test [7]. The minimum inhibition concentration in [7] (listed as Cefota-xime) is 0.2 µg/mL (≈ 0.439 µM); with Escherichia coli NIHJ, below 0.00625 µg/mL; in the test with Escherichia coli NIHJ (listed as Cefota-xime), below 0.025 µg/mL; in the test on Serratia marcescens 1023 (strain E: Serratia marcescens 1023), 100 µg/mL (≈ 220 µM); in the test on Proteus rettgeri NIH-96, below 0.00625 µg/mL; with Proteus rettgeri NIH-96 (listed as Cefota-xime), below 0.025 µg/mL.
As to `Cn1nnnc1SCC1=C(C(=O)O)N2C(=O)C(NC(=O)C(=C(Cl)Cl)c3ccco3)C2SC1` (stereo not shown) [Compound 1, 7-[2-dichloromethylene-2-(2-furyl)acetamido]-3-(1-methyl-IH-tetrazol-5-yl)thiomethyl-3-cephem-4-carboxylic acid], the MIC worked out at 12.5 µg/mL (≈ 24.2 µM) in test [1]; 50 µg/mL (≈ 96.6 µM) in test [2]; 25 µg/mL (≈ 48.3 µM) in the test on Klebsiella pneumoniae; 50 µg/mL (≈ 96.6 µM) with Proteus morgani Kono; 1.56 µg/mL (≈ 3.02 µM) in test [3]; 50 µg/mL (≈ 96.6 µM) in test [4]. In addition, the MIC with Escherichia coli NIHJC-2 was 25 µg/mL (≈ 48.3 µM); in test [5], 12.5 µg/mL (≈ 24.2 µM); in test [6], 3.12 µg/mL (≈ 6.04 µM); in test [7], 6.25 µg/mL (≈ 12.1 µM); in test [8], 0.39 µg/mL (≈ 0.754 µM); in the test with Escherichia coli NIHJ it was below 0.025 µg/mL. In addition, the MIC with Serratia marcescens 1023 was 1.56 µg/mL (≈ 3.02 µM); in the test on Proteus vulgaris OX-19, 0.2 µg/mL (≈ 0.387 µM); with Proteus rettgeri NIH-96, below 0.025 µg/mL.
With `CC(=O)OCC1=C(C(=O)O)N2C(=O)C(NC(=O)C(=C(Cl)Cl)c3ccc(O)cc3)[C@H]2SC1` (stereo partly shown) [Compound 2, 7-[2-dichloromethylene-2-(4-hydroxyphenyl)acetamido]-3-acetoxymethyl-3-cephem-4-carboxylic acid], the MIC is 100 µg/mL (≈ 205 µM) in test [1]; above 100 µg/mL in test [2]; above 100 µg/mL in the test with Klebsiella pneumoniae; above 100 µg/mL with Proteus morgani Kono; 3.12 µg/mL (≈ 6.41 µM) in test [3]; above 100 µg/mL in test [4]. The MIC in the test on Escherichia coli NIHJC-2 is above 100 µg/mL; in [5], above 100 µg/mL; in test [6], 6.25 µg/mL (≈ 12.8 µM); in test [7] it was above 100 µg/mL; in test [8], 0.39 µg/mL (≈ 0.8 µM); in the test with Escherichia coli NIHJ, 0.39 µg/mL (≈ 0.8 µM). In addition, the MIC with Serratia marcescens 1023 is 6.25 µg/mL (≈ 12.8 µM); with Proteus vulgaris OX-19, 6.25 µg/mL (≈ 12.8 µM); in the test on Proteus rettgeri NIH-96 it was 0.2 µg/mL (≈ 0.41 µM).
